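Step 1: Grow cells in 96-well plates. Step 2: Expose to compound for 48 hours at 5 concentrations. Step 3: Interpolate endpoints linearly; if unreached, use highest concentration. GI50: concentration for 50% inhibition of growth.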 Active and inactive are the calls of the source. Rule as the data show it: active = GI50 up to about 1.1 µM and inactive = higher.
Key:
Assay in all cases: NCI-60 cell line screen, 48 h
HT-29 = system: HT-29
M14 = system: M14
A549 = system: A549
NCI/ADR-RES = system: NCI/ADR-RES
SF-539 = system: SF-539
SR = system: SR
T47D = system: T47D
SK-MEL-28 = system: SK-MEL-28
SNB-75 = system: SNB-75
UO-31 = system: UO-31
SNB-19 = system: SNB-19
SW-620 = system: SW-620
CCRF-CEM = system: CCRF-CEM
786-0 = system: 786-0
U-251 = system: U-251
SF-295 = system: SF-295
RXF 393 = system: RXF 393
MDA-MB-435 = system: MDA-MB-435
NCI-H226 = system: NCI-H226

Measured: GI50

Cc1ccc(N(C(=O)Nc2ccccc2)C2=NCC(C)S2)cc1C (stereo not drawn)
inactive: HT-29 18.2 µM | M14 13.4 µM | A549 29 µM | NCI/ADR-RES 14.8 µM | SF-539 20.4 µM | SR 23.7 µM | T47D 14.8 µM | SK-MEL-28 17.5 µM | SNB-75 24.4 µM | UO-31 18.5 µM | SNB-19 33.3 µM | SW-620 24.7 µM | CCRF-CEM 19.6 µM | 786-0 20.4 µM | U-251 19.3 µM | SF-295 24.4 µM

COc1ccccc1C(=O)c1ccc2ccccc2c1
inactive: RXF 393 22.5 µM | HT-29 16.7 µM | M14 11.9 µM | A549 17.9 µM | NCI/ADR-RES 41.3 µM | MDA-MB-435 3.47 µM | SF-539 5.74 µM | SR 3.24 µM | SK-MEL-28 39.3 µM | SNB-75 38.2 µM | UO-31 20.6 µM | SNB-19 19.5 µM | SW-620 8.3 µM | NCI-H226 31.5 µM | CCRF-CEM 20.2 µM | 786-0 30.1 µM | U-251 13.3 µM | SF-295 22 µM

N#Cc1c(N2CCOCC2)[nH]c(=O)c(C(c2c(Cl)cccc2Cl)c2c(O)c(C#N)c(N3CCOCC3)[nH]c2=O)c1O
inactive: RXF 393 14.1 µM | HT-29 15.4 µM | M14 17.9 µM | A549 77.6 µM | NCI/ADR-RES 27.4 µM | MDA-MB-435 16.6 µM | SF-539 19.1 µM | SR 5.89 µM | SK-MEL-28 17.9 µM | UO-31 18.2 µM | SNB-19 16.1 µM | SW-620 17.7 µM | NCI-H226 23 µM | CCRF-CEM 15.1 µM | 786-0 32 µM | U-251 16.7 µM | SF-295 30.5 µM

C[N+](C)=c1[nH]c2ccccc2[nH]1
inactive: RXF 393 > 100 µM | HT-29 > 100 µM | M14 > 100 µM | A549 > 100 µM | SF-539 > 100 µM | SK-MEL-28 > 100 µM | SNB-75 24.3 µM | UO-31 > 100 µM | SW-620 > 100 µM | CCRF-CEM > 100 µM | 786-0 > 100 µM | U-251 > 100 µM | SF-295 > 100 µM

CC(=O)O[C@H]1CC[C@@]2(C)C(=CC[C@H]3[C@@H]4C/C(=C\c5ccc(N(C)C)cc5)[C@H](OC(C)=O)[C@@]4(C)CC[C@@H]32)C1
inactive: RXF 393 9.91 µM | HT-29 8.43 µM | M14 14.2 µM | A549 5.92 µM | NCI/ADR-RES 13.1 µM | SF-539 10.7 µM | SR 4.1 µM | T47D 5.56 µM | SK-MEL-28 12.7 µM | SNB-75 15.8 µM | UO-31 11.3 µM | SNB-19 13 µM | SW-620 14.9 µM | NCI-H226 12.1 µM | 786-0 4.36 µM | U-251 6.71 µM | SF-295 4.12 µM

CC(=O)NNC(=O)C1CCCCN1 (stereo not drawn)
inactive: RXF 393 > 100 µM | HT-29 > 100 µM | M14 > 100 µM | A549 > 100 µM | MDA-MB-435 > 100 µM | SF-539 > 100 µM | SR > 100 µM | SK-MEL-28 > 100 µM | SNB-19 > 100 µM | SW-620 > 100 µM | NCI-H226 > 100 µM | CCRF-CEM > 100 µM | 786-0 > 100 µM | U-251 > 100 µM | SF-295 > 100 µM

Nc1c(F)c(F)c2c(c1F)N(CCCCCl)c1ccccc1S2
inactive: RXF 393 > 100 µM | HT-29 > 100 µM | M14 > 100 µM | A549 > 100 µM | NCI/ADR-RES > 100 µM | SF-539 > 100 µM | SR > 100 µM | T47D > 100 µM | SK-MEL-28 > 100 µM | SNB-75 74.6 µM | UO-31 > 100 µM | SNB-19 > 100 µM | SW-620 > 100 µM | NCI-H226 > 100 µM | CCRF-CEM > 100 µM | 786-0 > 100 µM | U-251 > 100 µM | SF-295 > 100 µM

CC(=O)Nc1ccccc1NC1CC(C)N(c2ccccc2)N1C(C)=O (stereo not drawn)
inactive: RXF 393 > 10 µM | HT-29 > 10 µM | M14 > 10 µM | A549 > 10 µM | MDA-MB-435 > 10 µM | SR > 10 µM | T47D > 10 µM | SK-MEL-28 > 10 µM | SNB-75 > 10 µM | SW-620 > 10 µM | CCRF-CEM > 10 µM | 786-0 > 10 µM | SF-295 > 10 µM

O=C1CSC(=S)N1 [RHODANINE]
inactive: M14 > 100 µM | A549 > 100 µM | NCI/ADR-RES > 100 µM | SF-539 > 100 µM | SR > 100 µM | T47D > 100 µM | SK-MEL-28 > 100 µM | SNB-75 > 100 µM | UO-31 > 100 µM | SNB-19 > 100 µM | SW-620 > 100 µM | NCI-H226 > 100 µM | CCRF-CEM > 100 µM | 786-0 > 100 µM | U-251 > 100 µM | SF-295 > 100 µM
